Assays:
[1] = tested on: rat anti-GBM antiserum-administered nephritis model; assay: Pharmacological effect in rat anti-GBM antiserum-administered nephritis model; type: in vivo, rat (Wistar-Kyoto strain)
Experimental: Example Compound 1 or 2 was administered to a rat anti-GBM antiserum-administered nephritis model (Proceedings of the National Academy of Sciences of the United States of America, 2005, vol. 102, p. 7736-7741; European journal of pharmacology, 2002, vol. 449, p. 167-176), and the therapeutic effect of the nipecotic acid derivative (I) or a pharmaceutically acceptable salt thereof on chronic renal disease with glomerulonephritis and renal failure was evaluated. Rats (Wistar-Kyoto strain, male, 8 weeks old; Charles River Laboratories Japan, Inc.) with nephritis induced by administration of a rabbit anti-rat GBM antiserum prepared by methods described in documents (Proceedings of the National Academy of Sciences of the United States of America, 2005, vol. 102, p. 7736-7741; European journal of pharmacology, 2002, vol. 449, p. 167-176) into the tail vein were provided as “group with induced nephritis”. On the other hand, rats to which the anti-GBM antiserum was not administered were provided as “normal group”. Two weeks after administration of anti-GBM antiserum, blood was collected from the tail vein or jugular vein of each rat, and the sCre level was measured. The measurement of the sCre level was carried out by the enzymatic method. Two weeks after administration of anti-GBM antiserum, part of the rats were euthanized under anesthesia, and their kidneys were removed and immersed in formalin for storage. The formalin-fixed kidneys were embedded in paraffin, and sections were prepared. Pathological specimens (HE- and PAS-stained) were prepared therefrom, and histopathological examination was carried out. To rats showing pathological conditions of glomerulonephritis and renal failure in the group with induced nephritis, a suspension of Example Compound 1 in 0.5% aqueous methyl cellulose solution […] of anti-GBM antiserum until the end of the experiment. This group was provided as “Example Compound 1 (3 mg/kg)-administered group”. In addition, for comparative control, 0.5% aqueous methyl cellulose solution supplemented with 0.5% Tween 80 was similarly administered to rats in the group with induced nephritis, to provide “nephritis control group”. Similarly, 0.5% aqueous methyl cellulose solution supplemented with 0.5% Tween 80 was administered to the normal group. […] The serum Cys-C level was also measured at Week 5 after the administration of anti-GBM antiserum. The measurement of the serum Cys-C level was carried out using the antigen-antibody reaction. Five weeks after the administration of anti-GBM antiserum, the rats were euthanized under anesthesia. Kidneys were removed therefrom and immersed in formalin for storage. The formalin-fixed kidneys were embedded in paraffin, and sections were prepared. Histopathological specimens (HE- and PAS-stained) were prepared therefrom, and histopathological examination was carried out. […] The abscissa in the figure represents the number of weeks after the administration of anti-GBM antiserum, and the ordinate represents the sCre level (mean±standard error, n=6). The symbol “*” in the figure represents statistically significant difference from the nephritis control group (t-test, p<0.05). The results of histopathological examination of kidneys at Week 5 after the administration of anti-GBM antiserum are shown in FIG. 2, wherein the damaged areas in 30 to 40 glomeruli per individual were scored on a 4-point scale based on the ratio (%) of the lesion area (lesion area score: 1+, less than 25%; 2+, not less than 25% and less than 50%; 3+, not less than 50% and less than 75%; 4+, not less than 75%). Each individual corresponds to each bar, wherein the distribution of lesion area scores is shown. The ordinate in the figure represents the ratio of the lesion area score in each individual. Rats (Wistar-Kyoto strain, male, 10 weeks old; Charles River Laboratories Japan, Inc.) with glomerulonephritis induced by administration of an anti-GBM antiserum into the tail vein were provided as “group with induced nephritis”. […]

[2] = tested on: rat diabetic nephropathy model; assay: Pharmacological effect in rat diabetic nephropathy model (streptozotocin); type: in vivo, rat (spontaneously hypertensive rat); details: mean±standard error, n=6
Experimental: Example Compound 1 was administered to a rat diabetic nephropathy model (International Journal of Molecular Medicine, 2007, vol. 19, p. 571-579; Hypertension, 1998, vol. 32, p. 778-785), and the therapeutic effect of the nipecotic acid derivative (I) or a pharmaceutically acceptable salt thereof on chronic renal disease with diabetic nephropathy was evaluated.
Rats (spontaneously hypertensive rat, male, 12 or 13 weeks old; Charles River Laboratories Japan, Inc.) with diabetic nephropathy induced by administration of an aqueous streptozotocin (Enzo Life Sciences, Inc.) solution (40 mg/kg) into the tail vein were provided as “group with induced diabetic nephropathy”. On the other hand, rats to which water for injection was similarly administered were provided as “untreated group”.
Six weeks after administration of streptozotocin, urine was collected using a metabolic cage at room temperature for 24 hours. The urinary albumin concentration in the collected urine was measured by the ELISA method. From the urinary albumin concentration and the urine weight, the amount of urinary albumin excretion was calculated.
To rats showing pathological conditions of diabetic nephropathy in the group with induced diabetic nephropathy, Example Compound 1 (10 mg/kg) or a positive control compound imidapril (2 mg/kg) was orally administered once per day for 20 days from Day 8 after the administration of streptozotocin. […]
After the last administration of the test substance on Day 27 after administration of streptozotocin, urine was collected using a metabolic cage at room temperature for 24 hours. The urinary albumin concentration in the collected urine was measured by the ELISA method. From the urinary albumin concentration and the urine weight, the amount of urinary albumin excretion was calculated. In addition, on Day 18 after administration of streptozotocin, the systemic systolic pressure was measured by the tail-cuff method. On Day 29 after administration of streptozotocin, blood was collected from the abdominal aorta of each rat, and the plasma glucose concentration was measured. […]

[3] = 3 mg/kg, 5 weeks after anti-GBM antiserum, 5 animals

SMILES | sCre level vs nephritis control group ([1]; 10 mg/kg orally once per day from Week 2, Week 5 after anti-GBM antiserum, FIG. 3) | sCre level vs nephritis control group ([1]; 3 mg/kg orally once per day from Week 2, Week 3 after anti-GBM antiserum, t-test p<0.05, FIG. 1) | serum Cys-C level ([1]; 3 mg/kg orally once per day from Week 2, Week 5 after anti-GBM antiserum, mean±standard error, n=6) [mg/L] | histopathological examination of kidneys, injurious changes vs nephritis control group ([1]; 3 mg/kg, 5 weeks after anti-GBM antiserum) | Basophilic tubules, Mild [1, 3] | Basophilic tubules, Moderate [1, 3] | Dilatation of renal tubules, Mild [1, 3] | Dilatation of renal tubules, Moderate [1, 3] | Glomerular sclerosis, Mild [1, 3] | Glomerular sclerosis, Moderate [1, 3] | Glomerular sclerosis, Severe [1, 3] | Mild infiltration of mononuclear cells into the stroma [1, 3] | Protein casts in outer medulla, Mild [1, 3] | Protein casts in outer medulla, Moderate [1, 3] | Protein casts in outer medulla, Severe [1, 3] | scoring of the damaged area in glomeruli (lesion area score) ([1]; 3 mg/kg, Week 5 after anti-GBM antiserum, FIG. 2) | amount of urinary albumin excretion ([2]; Day 27 after streptozotocin, orally once per day for 20 days from Day 8 (Example Compound 1 10 mg/kg, imidapril 2 mg/kg)) [mg/day] | systemic systolic pressure ([2]; day 18 after streptozotocin, 10 mg/kg orally once per day, tail-cuff) [mmHg]
CC(C)(NS(C)(=O)=O)C(=O)N1CCC[C@@H](C(=O)NCc2ccc(C#N)cc2OC(F)(F)F)C1 [Example Compound 2, (R)—N-(4-cyano-2-(trifluoromethoxy)benzyl)-1-(2-methyl-2-(methylsulfonamido)propanoyl)piperidine-3-carboxamide] | remarkably lower |  |  |  |  |  |  |  |  |  |  |  |  |  |  |  |  | 
CCC(=O)NC1(C(=O)N2CCC[C@@H](C(=O)NCc3ccc(C#N)cc3OC(F)(F)F)C2)CCC1 [Example Compound 1, (R)—N-(4-cyano-2-(trifluoromethoxy)benzyl)-1-(1-propionamidocyclobutanecarbonyl)piperidine-3-carboxamide] |  | statistically significantly lower | 0.63 ± 0.08 | lower degrees and frequencies of these injurious changes | 2 number of individuals | 3 number of individuals | 1 number of individuals | 4 number of individuals | 0 number of individuals | 5 number of individuals | 0 number of individuals | 5 number of individuals | 1 number of individuals | 4 number of individuals | 0 number of individuals | suppression of glomerular injury | 5.41 ± 1.13 | 199±6

From patent US20150065717A1, “NIPECOTIC ACID DERIVATIVE AND USE THEREOF FOR MEDICAL PURPOSES” (Toray Industries, Inc., priority 2012, published 2015)
